{"source": "patent EP0934745B1", "about": "“Use of androsterone derivatives for inhibiting DNA binding of ap-1 and airway smooth muscle proliferation” (CHARLOTTE-MECKLENBURG HOSPITAL doing business as Carolinas …, priority 1998, dated 1999)", "test_system": "p21^ras", "experiment": "Immunoblot of p21ras in membranes of cultured airway smooth muscle cells", "type": "cell-based, rat", "conditions": "10% FBS + 10 µM, 24 hours (Figure 6B)", "experimental": "To determine if 16α-bromoepiandrosterone reduced cellular proliferation by interfering with mevalonic acid synthesis, cells were stimulated with FBS and grown in the presence or absence of 16α-BrEA, with or without addition of 6 mM DL-mevalonic acid lactone to growth medium. After 36 hours growth was measured by MTT reduction. To evaluate whether isoprenylation and membrane localization of Ras was impaired, confluent cells on 75-cm^2 Petri dishes were growth arrested for 24 hours in 0.5% FBS and DMEM with and without 16α-BrEA or DMSO vehicle. Some dishes were then stimulated 30 minutes with 10% FBS in DMEM. Cells were lysed, membranes were isolated and immunoblotting was performed as described below to determine if treatment with DHEA and 16α-BrEA depleted p21^ras.\nTo determine if DHEA or its analogs induced programmed cell death, confluent cultures in 6 well plastic plates were treated with 50 or 250 µM DHEA, 10 or 50 µM 16α-BrEA, or vehicle (25 µl DMSO). After 2 hours cells were washed twice with DPBS and scraped on ice into 1.5 ml microfuge tubes and centrifuged 250 g for 5 minutes at 4°C. […] The linear increase in absorbance at 340 nm was monitored at 25°C for 300 seconds. Activity was expressed as units/mg protein, where 1.0 unit will oxidase 1.0 µmole of G6P to 6-phospho-D-gluconate per min in the presence of NADP. Protein was measured using the BCA protein assay (Rockford, IL). […]", "data": [{"smiles": "C[C@]12CC[C@H](O)C[C@@H]1CC[C@@H]1[C@@H]2CC[C@]2(C)C(=O)[C@H](Br)C[C@@H]12", "note": "[16α-BrEA, 16α-bromoepiandrosterone]", "values": [{"measurement": "p21^ras in membranes of cultured airway smooth muscle cells", "value": "does not deplete p21^ras"}]}]}
